Data reported in US20220386606A1, “SPECIFICALLY SUBSTITUTED 3-PHENYL-5-SPIROCYCLOPENTYL-3-PYRROLIN-2-ONES AND THEIR USE AS HERBICIDES” (Bayer Aktiengesellschaft, priority 2019, published 2022).

Columns and labels:
DIGSA [1] = experiment: Post-emergence herbicidal action against DIGSA; format: in vivo, Digitaria sanguinalis; conditions: 80 g/ha, visual assessment about 3 weeks after treatment vs untreated controls
Procedure, shortened: (§1)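 Herbicidal action is rated visually in percent against untreated controls, where 100% means dead plants and 0% means no difference. Ratings come about 3 weeks after foliar spraying of one-leaf-stage plants with aqueous WP or EC preparations plus 0.2% wetting agent at 600 to 800 l/ha.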

LOLRI [2] = experiment: Pre-emergence herbicidal action against LOLRI (Table 8, titled post-emergence at 320 g/ha); format: in vivo, Lolium rigidum; conditions: table stands in the pre-emergence section
Procedure, shortened: (§2)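 Seeds sown in sandy loam in wood-fiber pots and covered with soil; WP or EC formulations applied to covering soil surface as aqueous suspension/emulsion at 600 to 800 L/ha water plus 0.2% wetting agent. Greenhouse-grown; damage scored visually after 3 weeks versus untreated controls (100% = dead, 0% = like control).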

ALOMY [3] = experiment: Pre-emergence herbicidal action against ALOMY; format: in vivo, Alopecurus myosuroides; conditions: 320 g/ha, scored visually after 3 weeks vs untreated controls
Procedure, shortened: as §2

AVEFA [4] = experiment: Pre-emergence herbicidal action against AVEFA; format: in vivo, Avena fatua; conditions: 320 g/ha, scored visually after 3 weeks vs untreated controls
Procedure, shortened: as §2

VIOTR = experiment: Pre-emergence herbicidal action against VIOTR; format: in vivo, Viola tricolor; conditions: 320 g/ha
Procedure, shortened: as §2

DIGSA [5] = experiment: Pre-emergence herbicidal action against DIGSA; format: in vivo, Digitaria sanguinalis; conditions: 320 g/ha, scored visually after 3 weeks vs untreated controls
Procedure, shortened: as §2

ABUTH [6] = experiment: Pre-emergence herbicidal action against ABUTH; format: in vivo, Abutylon threophrasti; conditions: 320 g/ha
From the text: (§3) Seeds of monocotyledonous and dicotyledonous weed plants and crop plants are laid out in sandy loam soil in wood-fiber pots and covered with soil. The compounds of the invention, formulated in the form of wettable powders (WP) or as emulsion concentrates (EC), are then applied to the surface of the covering soil as aqueous suspension or emulsion at a water application rate equating to 600 to 800 L/ha with addition of 0.2% wetting agent.
(§4) After the treatment, the pots are placed in a greenhouse and kept under good growth conditions for the trial plants. The damage to the test plants is scored visually after a test period of 3 weeks by comparison with untreated controls (herbicidal activity in percent (%): 100% activity=the plants have died, 0% activity=like control plants).

ECHCG [7] = experiment: Pre-emergence herbicidal action against ECHCG; format: in vivo, Echinochloa crus-galli; conditions: 320 g/ha, scored visually after 3 weeks vs untreated controls
Procedure, shortened: as §2

SETVI [8] = experiment: Pre-emergence herbicidal action against SETVI; format: in vivo, Setaria viridis; conditions: 320 g/ha, scored visually after 3 weeks vs untreated controls
Procedure, shortened: as §2

SETVI [9] = experiment: Post-emergence herbicidal action against SETVI; format: in vivo, Setaria viridis; conditions: 80 g/ha, visual assessment about 3 weeks after treatment vs untreated controls
Procedure, shortened: as §1

AVEFA [10] = experiment: Post-emergence herbicidal action against AVEFA; format: in vivo, Avena fatua; conditions: 80 g/ha, visual assessment after about 3 weeks
Procedure, shortened: as §1

ECHCG [11] = experiment: Post-emergence herbicidal action against ECHCG; format: in vivo, Echinochloa crus-galli; conditions: 80 g/ha, visual assessment about 3 weeks after treatment vs untreated controls
Procedure, shortened: as §1

AMARE = experiment: Pre-emergence herbicidal action against AMARE; format: in vivo, Amaranthus retroflexus; conditions: 320 g/ha
Procedure, shortened: as §2

POLCO = experiment: Pre-emergence herbicidal action against POLCO; format: in vivo, Polygonum convolvulus; conditions: 320 g/ha
From the text: as §3, §4

ABUTH [12] = experiment: Post-emergence herbicidal action against ABUTH; format: in vivo, Abutylon threophrasti; conditions: 80 g/ha, visual assessment about 3 weeks after treatment vs untreated controls
Procedure, shortened: as §1

LOLRI [13] = experiment: Post-emergence herbicidal action against LOLRI; format: in vivo, Lolium rigidum; conditions: 80 g/ha, visual assessment about 3 weeks after treatment vs untreated controls
Procedure, shortened: as §1

ALOMY [14] = experiment: Post-emergence herbicidal action against ALOMY; format: in vivo, Alopecurus myosuroides; conditions: 80 g/ha, visual assessment after about 3 weeks
Procedure, shortened: as §1

MATIN = experiment: Pre-emergence herbicidal action against MATIN; format: in vivo; conditions: 320 g/ha
Procedure, shortened: as §2

VERPE = experiment: Pre-emergence herbicidal action against VERPE; format: in vivo, Veronica persica; conditions: 320 g/ha
Procedure, shortened: as §2

| SMILES | Post-emergence action against DIGSA in % (DIGSA [1]) | Pre-emergence herbicidal action against LOLRI in % (LOLRI [2]) | Pre-emergence action against ALOMY in % (ALOMY [3]) | Pre-emergence action against AVEFA in % (AVEFA [4]) | Pre-emergence action against VIOTR in % (VIOTR) | Pre-emergence action against DIGSA in % (DIGSA [5]) | Pre-emergence action against ABUTH in % (ABUTH [6]) | Pre-emergence action against ECHCG in % (ECHCG [7]) | Pre-emergence action against SETVI in % (SETVI [8]) | Post-emergence action against SETVI in % (SETVI [9]) | Post-emergence action against AVEFA in % (AVEFA [10]) | Post-emergence action against ECHCG in % (ECHCG [11]) | Pre-emergence action against AMARE in % (AMARE) | Pre-emergence action against POLCO in % (POLCO) | Post-emergence action against ABUTH in % (ABUTH [12]) | Post-emergence action against LOLRI in % (LOLRI [13]) | Post-emergence action against ALOMY in % (ALOMY [14]) | Pre-emergence action against MATIN in % (MATIN) | Pre-emergence action against VERPE in % (VERPE) |
| --- | --- | --- | --- | --- | --- | --- | --- | --- | --- | --- | --- | --- | --- | --- | --- | --- | --- | --- | --- |
| CC#Cc1cc(C)c(C2=C(O)C3(CCC(COC)C3)NC2=O)c(Br)c1 (stereo not drawn) [Example I-18] | 100% | 100% | 100% | 100% | 100% | 100% | 80% | 100% | 100% | 100% | 100% | 100% | 100% | 100% | 80% | 100% | 100% | – | – |
| CC#Cc1cc(C)c(C2=C(O)C3(CCC(COCCOC)C3)NC2=O)c(Cl)c1 (stereo not drawn) [Example I-50] | – | 100% | 100% | 100% | 100% | 100% | 100% | 100% | 100% | 100% | 80% | 100% | 80% | 90% | – | 90% | 100% | 80% | – |
| CC#Cc1cc(Br)c(C2=C(OC(=O)OCC)C3(CCC(COC)C3)NC2=O)c(OC)c1 (stereo not drawn) [Example P-08] | 100% | 100% | 100% | 100% | 90% | 100% | 80% | 100% | 100% | 100% | – | 100% | – | 100% | 80% | 100% | 100% | 80% | 90% |
| CC#Cc1cc(C)c(C2=C(OC(=O)C(C)C)C3(CCC(COC)C3)NC2=O)c(Br)c1 (stereo not drawn) [Example P-32] | 100% | 100% | 100% | 90% | 100% | 100% | 80% | 100% | 100% | 100% | 90% | 100% | 90% | 80% | 90% | 100% | 100% | 80% | 90% |
| CC#Cc1cc(C)c(C2=C(OC(=O)OCC)C3(CCC(COCCOC)C3)NC2=O)c(Cl)c1 (stereo not drawn) [Example P-75] | 90% | 100% | 100% | 100% | 100% | 100% | 80% | 100% | 100% | 100% | 90% | 100% | 100% | 80% | – | 100% | 100% | 90% | 90% |
| CC#Cc1cc(C)c(C2=C(OC(=O)OCC)C3(CCC(COCCC)C3)NC2=O)c(Cl)c1 (stereo not drawn) [Example P-87] | 100% | 100% | 100% | 100% | 90% | 100% | 80% | 100% | 100% | 100% | 80% | 100% | – | 80% | 80% | 100% | 90% | – | 80% |
| CC#Cc1cc(Cl)c(C2=C(OC(=O)OCC)C3(CCC(COC)C3)NC2=O)c(OC)c1 (stereo not drawn) [Example P-98] | 100% | 100% | 100% | 100% | 100% | 100% | 90% | 100% | 100% | 100% | 90% | 100% | 100% | – | – | 100% | 100% | 90% | 100% |
| C#CCOCC1CCC2(C1)NC(=O)C(c1c(C)cc(C#CC)cc1Cl)=C2OC(=O)OCC (stereo not drawn) [Example P-100] | 90% | 100% | 100% | 90% | 100% | 100% | 80% | 100% | 100% | 100% | 80% | 100% | 100% | – | – | 100% | 100% | 90% | 90% |
